How the values were obtained:
[1] = test system: reprogramming ASCs; assay: BDL-E5 live staining time course of episomally reprogrammed ASCs on MG; format: cell-based, human
Procedure: (§1) Episomal plasmids developed by Yamanaka's lab were obtained from Addgene: pCXLEhOct3/4-shp53-F (Addgene #27077), pCXLE-hSK (Addgene #27078), pCXLE-hUL (Addgene #27080) and pCXLE-EGFP (Addgene #27082) (Okita, et al. (2011). Nat Methods 8, 409-412). 1×10^6 cells were suspended together with 1 μg of each episomal vector in Nucleofector solution supplied in the Nucleofector Kit R (Lonza). Then the cells were transfected with the Program FF-113 on a Nucleofector 2b Device. The transfected cells were then cultured in ASC or DPSC medium (MSC medium) supplemented with 0.5 mM sodium butyrate, with daily media change. On Day 7 dpn, 1×10^5 viable cells were seeded over MEF feeders (GlobalStem) into one well of a 6-well plate for feeder-based iPS derivation; 2×10^5 viable cells were seeded for feeder-free iPS derivation into one well of a 6-well plate pre-coated with Matrigel (Corning). The next day, MSC medium was changed to feeder-based hES medium (DMEM/F12 supplemented with 20% knock out serum replacement, 1% GlutaMAX, 1% NEAA, Pen/Strep, 0.1 mM p-mercaptoethanol and 10 ng/ml b-FGF) or to feeder-free mTeSR1 (StemCell Technologies), supplemented with sodium butyrate. At 12 dpn, supplementation of sodium butyrate was stopped, and conditioned further with SMC4 cocktail (consisting of small molecules: PD0325901, CHIR99021, Thiazovivin, and SB431542 (FOCUS Biomolecules)) in hES medium/mTeSR1. This media supplement was continued until initial colony formation began.
(§2) Reprogrammed cells were immune-stained with fluorescent live cell stain TRA-1-60 (R&D Systems, GloLIVE NL557) as per manufacturer's instructions. After incubating with the live staining antibodies for 30 min and Hoechst 33342 for 10 min, cells were washed 3 times with PBS and images with the Cy5 and DAPI channels, respectively, were immediately captured.
(§3) Further experiments were carried out using BDL-E5. To determine whether BDL-E5 identifies the early stages of pluripotency, ASCs and DPSCs were reprogrammed using nucleofection of episomal vectors, and seeded onto MG-coated plates (feeder-free, viral-free reprogramming method). […]

[2] = test system: reprogramming DPSCs; assay: BDL-E5 live staining time course of episomally reprogrammed DPSCs on MG; format: cell-based, human
Procedure: as §1, §2, §3

[3] = test system: reprogrammed DPSCs; assay: FACS of reprogrammed DPSCs stained with BDL-E5 at 7 dpn and iPS colony count; format: cell-based, human; settings: DPSCs sorted at 7 dpn, seeded on MEF, two weeks
Procedure: Reprogrammed ASCs and DPSCs, AiPS and DiPS on D7 or D14 dpn were stained with BDL-E5 for 1 hour and then harvested using TrypLE and resuspended in 1×PBS. The cells were then subjected to FACS in the MoFlo XDP Cell Sorter (Beckman Coulter) under sterile conditions.
Different DPSC cell lines were reprogrammed using the feeder-free episomal method, incubated with BDL-E5, and subjected to fluorescence activated cell sorting (FACS) at 7 dpn. […] FIG. 10A (i) and (ii) represents the unstained DPSCs.
The cells were allowed to grow for the next two weeks until colonies appeared.

[4] = test system: reprogramming DPSCs at 7 dpn; assay: Fluorescent subcellular organelle co-staining; format: cell-based, human; settings: confocal; ER, Golgi, lysosome, mitochondria marker dyes
Description: Reprogrammed DPSCs at 7 dpn on MG were stained for cell organelle marker dyes (Molecular Probes) for endoplasmic reticulum (ER) (ER-Tracker™ Green (BODIPY® FL Glibenclamide)), Golgi complex (BODIPY® FL C5-Ceramide (N-(4,4-Difluoro-5,7-Dimethyl-4-Bora-3a,4a-Diaza-s-Indacene-3-Pentanoyl)Sphingosine)), lysosome (LysoTracker® Green DND-26), or mitochondria (MitoTracker® Green FM). Confocal images were taken to visualize the staining.
To determine the subcellular organelle localization of BDL-E5 in reprogramming cells, 7 dpn DPSCs on MG were stained for BDL-E5 and organelle marker dyes for endoplasmic reticulum (ER), Golgi complex, lysosome, or mitochondria.

[5] = test system: reprogramming DPSCs; assay: Staining of DPSCs reprogrammed with retroviral Yamanaka factors on MEF; format: cell-based, human; settings: retroviral OCT4, SOX2, KLF4, C-MYC
Description: (§4) iPS cells were also generated from DPSCs with the traditional protocol involving retroviral vectors expressing OCT4, SOX2, KLF4, and C-MYC (Sugii, et al. (2011). Nature Protoc 6(3):346-358). BJ human neonatal fibroblasts were reprogrammed using lentiviral OCT4, SOX2, KLF4, and C-MYC as described previously (Toh, et al. (2016). Cell Rep 15(12):2597-2607).
(§5) We also tested whether BDL-E5 worked for commonly used reprogramming methods and cell type. DPSCs were infected with retroviral vectors expressing four Yamanaka factors, and plated onto MEF. […] In addition, BJ human fibroblasts were reprogrammed with lentiviral Yamanaka factors.

[6] = test system: BJ human fibroblasts; assay: Staining of BJ fibroblasts reprogrammed with lentiviral Yamanaka factors; format: cell-based
Description: as §4, §5

[7] = Absorption and emission maxima of the probe; format: physicochemical
Procedure: The chemical properties of the BDL library are previously described (Jeong et al., 2015). BDL-E5 is based on 4,4-difluoro-4-bora-3a,4a-diaza-s-indacene (BODIPY), with calculated mass of 528.3 and absorption maximum/emission maximum of 578/599 nm. Primary, secondary and tertiary screening of fluorescent probes on AiPS, ASCs, DiPS and DPSCs were performed as described previously (Im, et al. (2010). Angew Chem Int Ed Engl 49, 7497-7500; Kang, et al. (2011). Nat Protoc 6, 1044-1052) and in the Results section. Unless described otherwise, BDL-E5 and CDy1 images were acquired by the Tetramethylrhodamine (TRITC) channel of ImageXpress Micro High-Content Imaging System, which had the Adaptive Background Correction function enabled.

Compound: COc1cc(F)c(/C=C/c2cc(C)c3n2[B-](F)(F)[N+]2=C(CCC(=O)NCCN(C)C)C=CC2=C3)cc1OC [BDL-E5]
- intensity of fluorescence of staining at 7, 14, 21, 28 dpn ([1]; iPS colonies formed from ASCs): increased with increasing time
- fate of stained cells tracked in the same field of view until colony formation ([1]; reprogrammed ASCs, staining every 48 h, 10-24 dpn): only cells staining positive for BDL-E5 formed iPS colonies
- time at which positive cells/colonies were found ([1]; reprogramming ASCs, MG-coated plates, episomal feeder-free): around 14 dpn
- intensity of fluorescence of staining at 7, 14, 21, 28 dpn ([2]; iPS colonies formed from DPSCs): increased with increasing time
- fate of stained cells tracked in the same field of view until colony formation ([2]; reprogrammed DPSCs, staining every 48 h, 10-24 dpn): only cells staining positive for BDL-E5 formed iPS colonies
- time at which positive cells/colonies were found ([2]; reprogramming DPSCs, MG-coated plates, episomal feeder-free): 7 dpn
- iPS colonies from BDL-E5+ (top 10%) versus BDL-E5- (bottom 10%) sorted cells [3]: gave rise to an increased number of iPSCs
- subcellular organelle localization [4]: co-localize significantly with Golgi complex staining
- earliest time of staining of reprogramming cells [5]: 7 dpi
- staining of reprogramming versus non-reprogramming cells [6]: successfully stained reprogramming, but not non-reprogramming cells
- staining strength compared with TRA-1-60 [6]: stronger than that of TRA-1-60
- absorption maximum [7]: 578 nm
- emission maximum [7]: 599 nm

From patent US20230339983A1, “FLUORESCENT COMPOUNDS SPECIFIC FOR PLURIPOTENT STEM CELLS AND REPROGRAMMING-READY CELLS AND METHODS OF USING THE SAME” (Agency for Science, Technology and Research, priority 2018, published 2023)
